Data on 26 molecules can be found in patent US20120010075A1 (priority 2009, published 2012).

Structures are written as SMILES.

The test system of data set [1] is Phytophthora infestans. Type of data set: in vivo, Phytophthora infestans on tomato. Particulars: hydrazone 50 ppm with 50 μM CuCl2.2H2O, applied 24 h before inoculation; assessed 7 days after inoculation; tomato late blight.
Data set [2] concerns Leptosphaeria nodorum (LEPTNO). Kind of data set: In vitro fungitoxicity of hydrazones with and without copper towards Leptosphaeria nodorum (Example 26). Type of data set: cell-based. The conditions noted are these: test compound Concn. 0.05 μg/mL, 72 h at 25° C.; for inhibition of growth at 0.05 µg/mL: Parastagonospora nodorum, 72 h, copper-minus medium, read-out: LEPTNO % Inhn. Minus Copper Observed; for LEPTNO % Inhn. Plus Copper Observed: copper-plus medium (CuCl2 10 μM).

For orientation: melting point means the temperature, or range, at which the solid turns liquid. `O=C(N/N=C/c1cc(Br)cc(F)c1O)c1ccccc1` [Example 410] gave a melting point of 211 to 212 °C. Besides, the “TLB % Control” value in data set [1] worked out at 95.0%. Moreover, in data set [2], the inhibition of growth at 0.05 µg/mL came to 1.9% and the “LEPTNO % Inhn. Plus Copper Observed” value stood at 97.6%.
Molecule `Cc1ccc(C(=O)N/N=C/c2cc(Cl)cc(Br)c2O)cc1` [Example 413] returned a melting point of 279 to 282 °C. In data set [1], the “TLB % Control” value came to 94.0%. In addition, in data set [2], the inhibition of growth at 0.05 µg/mL was found to be 18.9% and the “LEPTNO % Inhn. Plus Copper Observed” value is listed as 97.9%.
In turn, `O=C(N/N=C/c1cc(Cl)cc(Br)c1O)c1cccc(F)c1` [Example 414] came in with a melting point of 209 to 215 °C. Further, the “TLB % Control” value in data set [1] is 90.0%. In data set [2], the inhibition of growth at 0.05 µg/mL came out at 14.6% and the “LEPTNO % Inhn. Plus Copper Observed” value was 97.9%.
Molecule `O=C(N/N=C/c1cc(Cl)cc(Br)c1O)c1ccc(F)cc1` [Example 415] registered a melting point of 200 to 211 °C. Further, the “TLB % Control” value in data set [1] is 100.0%. Also, in data set [2], the inhibition of growth at 0.05 µg/mL is 2.9% and the “LEPTNO % Inhn. Plus Copper Observed” value is recorded as 96.1%.
The corresponding values for `O=C(N/N=C/c1cc(Cl)cc(Br)c1O)c1cccc([N+](=O)[O-])c1` [Example 416] are 167 to 226 °C, 93.0%, 4.3% and 97.5%.
The corresponding values for `O=C(N/N=C/c1cc(Cl)cc(Br)c1O)c1ccc([N+](=O)[O-])cc1` [Example 417] are 237 to 250 °C, 100.0%, 10.7% and 98.2%.
Molecule `O=C(N/N=C/c1cc(Cl)cc(Br)c1O)c1ccccc1C(F)(F)F` [Example 418] returned a melting point of 266 to 274 °C. Also, in data set [1], the “TLB % Control” value came to 93.0%. For the same molecule, in data set [2], the inhibition of growth at 0.05 µg/mL is 0% and the “LEPTNO % Inhn. Plus Copper Observed” value is given as 97.3%.
Consider `Cc1cccc(C(=O)N/N=C/c2cc(Cl)ccc2O)c1` [Example 419], for which the melting point lay within 188 to 196 °C. Besides, in data set [1], the “TLB % Control” value is 90.0%. In data set [2], the inhibition of growth at 0.05 µg/mL was 3.2% and the “LEPTNO % Inhn. Plus Copper Observed” value is recorded as 94.9%.
The like results for `O=C(N/N=C/c1cc(Cl)ccc1O)c1cccc(F)c1` [Example 420] were, in that order, 205 to 224 °C, 100.0%, 11.4% and 97.5%.
The like results for `O=C(N/N=C/c1cc(Cl)ccc1O)c1ccc(F)cc1` [Example 421] were, in that order, 234 to 243 °C, 94.0%, 8.2% and 96.6%.
Molecule `O=C(N/N=C/c1cc(Cl)ccc1O)c1ccccc1C(F)(F)F` [Example 422] had a melting point of 154 to 164 °C. Moreover, the “TLB % Control” value in data set [1] is on record as 90.0%. In addition, in data set [2], the inhibition of growth at 0.05 µg/mL was 0% and the “LEPTNO % Inhn. Plus Copper Observed” value was 95.5%.
The corresponding values for `Cc1cccc(C(=O)N/N=C/c2cccc(Cl)c2O)c1` [Example 423] are 166 to 169 °C, 98.0%, 0.8% and 98.0%.
The corresponding values for `Cc1ccc(C(=O)N/N=C/c2cccc(Cl)c2O)cc1` [Example 424] are 230 to 232 °C, 100.0%, 22.3% and 97.0%.
On to `O=C(N/N=C/c1cccc(Cl)c1O)c1cccc(F)c1` [Example 425], for which the melting point was in the range of 178 to 184 °C. For the same molecule, the “TLB % Control” value in data set [1] is 95.0%. Besides, in data set [2], the inhibition of growth at 0.05 µg/mL was determined as 17.5% and the “LEPTNO % Inhn. Plus Copper Observed” value was 97.6%.
The corresponding values for `O=C(N/N=C/c1cccc(Cl)c1O)c1ccc(F)cc1` [Example 426] are 194 to 198 °C, 98.0%, 34.8% and 97.3%.
Molecule `O=C(N/N=C/c1cccc(Cl)c1O)c1cccc([N+](=O)[O-])c1` [Example 429] gave a melting point of 236 to 239 °C. In addition, in data set [1], the “TLB % Control” value is listed as 94.0%. In addition, in data set [2], the inhibition of growth at 0.05 µg/mL is 10.4% and the “LEPTNO % Inhn. Plus Copper Observed” value is listed as 97.4%.
In turn, `O=C(N/N=C/c1cccc(Cl)c1O)c1ccc([N+](=O)[O-])cc1` [Example 430] registered a melting point of 284 to 287 °C. In addition, the “TLB % Control” value in data set [1] is 100.0%. For the same molecule, in data set [2], the inhibition of growth at 0.05 µg/mL is 16.6% and the “LEPTNO % Inhn. Plus Copper Observed” value turned out to be 98.2%.
The like results for `O=C(N/N=C/c1cccc(Cl)c1O)c1ccccc1O` [Example 431] were, in that order, 266 to 268 °C, 91.0%, 8.5% and 95.1%.
The molecule `O=C(N/N=C/c1cccc(Cl)c1O)c1ccccc1C(F)(F)F` [Example 432] gave a melting point of 118 to 121 °C. Further, the “TLB % Control” value in data set [1] is 72.0%. Also, in data set [2], the inhibition of growth at 0.05 µg/mL stood at 0% and the “LEPTNO % Inhn. Plus Copper Observed” value was found to be 95.9%.
The like results for `Cc1ccc(C(=O)N/N=C/c2cccc(Cl)c2O)c(O)c1` [Example 433] were, in that order, 258 to 266 °C, 100.0%, 10.8% and 97.8%.
Consider `Cc1ccc(C(=O)N/N=C/c2cc(Cl)cc(Br)c2O)c(O)c1` [Example 434], for which the melting point was 262 to 268 °C. In addition, in data set [1], the “TLB % Control” value was determined as 100.0%. In data set [2], the inhibition of growth at 0.05 µg/mL is 25.6% and the “LEPTNO % Inhn. Plus Copper Observed” value is listed as 97.4%.
In turn, `Cc1cccc(C(=O)N/N=C/c2cc(C(F)(F)F)ccc2O)c1` [Example 435] came in with a melting point of 192 to 194 °C. Moreover, in data set [1], the “TLB % Control” value was 100.0%. In addition, in data set [2], the inhibition of growth at 0.05 µg/mL turned out to be 4.7% and the “LEPTNO % Inhn. Plus Copper Observed” value was 97.2%.
Molecule `Cc1ccc(C(=O)N/N=C/c2cc(C(F)(F)F)ccc2O)cc1` [Example 436] showed a melting point of 245 to 249 °C. For the same molecule, the “TLB % Control” value in data set [1] is on record as 94.0%. Further, in data set [2], the inhibition of growth at 0.05 µg/mL worked out at 14.6% and the “LEPTNO % Inhn. Plus Copper Observed” value came to 98.2%.
The corresponding values for `O=C(N/N=C/c1cc(C(F)(F)F)ccc1O)c1cccc(F)c1` [Example 437] are 188 to 196 °C, 100.0%, 9.2% and 97.0%.
The corresponding values for `O=C(N/N=C/c1cc(C(F)(F)F)ccc1O)c1ccc(F)cc1` [Example 438] are 229 to 231 °C, 98.0%, 0% and 94.2%.
The corresponding values for `O=C(N/N=C/c1cc(C(F)(F)F)ccc1O)c1cccc(Cl)c1` [Example 439] are 187 to 197 °C, 96.0%, 0% and 100.0%.
